Here are results for 7 substances from US5153175A, “Method of inducing sleep with GHRH complementary peptide compositions” (University of Tennesee Research Corporation, priority 1989, dated 1992).

Ends that are not written are not given here.

For one data set, the system named is rabbits. The experiment in a line: Biological assay for sleep-promoting activity in rabbits after intracerebroventricular infusion (EEG, body movement, temperature). It counts as in vivo. Particulars: rabbit; for time spent in SWS / time spent in rapid-eye-movement sleep: after administration, vs control. As to the method: Biological assays for sleep-promoting activity were performed on rabbits provided with chronically implanted ventricular guide tubes and four epidural screw electrodes for EEG. The animals were allowed at least one week to recover from surgery prior to their use for assays. Samples for testing were taken up in sterile artificial cerebrospinal fluid and a total of […] solution was infused intraventricularly (ICV) at the rate of 25 ul/min through a No. 26 hypodermic needle inserted through a guide tube. Following the infusion and removal of the infusion probe the animals were left undisturbed for 6-8 hours while EEG and bodily movements were recorded.
Slow wave sleep (SWS) was scored in two ways: (i) by conventional subjective scoring of the duration of SWS from polygraph records and (ii) by digital print-out of integrated mean rectified cortical slow waves (1/2-4 Hz). thus obtaining a measure of the amplitude was well as duration of delta wave EEG activity. Control animals were also assayed at the same time.
Operation and experimental procedure. Adult male New Zealand White Pasteurella-free rabbits, weighing 3-4 kg, were purchased from Myrtle's Rabbitry (Thompson Station, Tenn.). Under ketamine-xylazine (3.5-5.0 mg/kg iv) anesthesia, animals were provided with chronically implanted EEG electrodes, a glass-bead thermistor, and a cerebral ventricular guide tube (Krueger, J.M et al., Am. J. Physiol. 251 (Regulatory Integrative Comp. Physiol. 20): R591-R597, 1986; and Walter J.D. et al., Am. J. Physiol., 250 (Regulatory Integrative Comp. Physiol. 19): R96-R103, 1986). Briefly, stainless steal screws were implanted over the frontal parietal, and occipital cortex; and a small (1 mm diam) 50-k.OMEGA. thermistor (Fenwall Electronics) was placed 3 mm into the parietal cortex. Wires from Amphenol plugs (no. 223-1509) were soldered to the screws for EEG recordings and to the thermistors for brain temperature (Tbr) recordings. The ventricular guide tube was implanted 4 mm lateral to the bregma; during the implantation procedure, pressure at the tip of the infusion needle was monitored and used as an aid to locate the ventricle (See, e.g., Krueger, J.M et al., Am. J. Physiol., 246 (Regulatory Integrative Comp. Physiol. 15): R994-R999, 1984). Dental acrylic (DuzAll) was then used to insulate the leads and to secure the guide tube and EEG/thermistor plugs to the skull. A topical antibiotic (Bacitracin, Lilly) was applied to the incision, and 150,000 U of Duracillin (Lilly) were administered intramuscularly. At least 1 week was allowed for recovery.
Animals were housed in rooms on a 12:12-h light-dark cycle (0600-1800 h light) maintained at 21 ±2° C. The day before an experiment animals were brought to experimental chambers (Hotpack model 352600) for an overnight acclimation period. Each experimental chamber was also kept at 21 ±2° C. on a 12:12-h light-dark cycle. Food and water were available ad libitum at all times. At the top of the recording chamber, BRS/LVE electrical contact swivel was fixed; this allowed the rabbits free movement during recording periods. From the other end of the swivel a cable led to a Grass polygraph model 7D. Before each recording period the rabbits were connected to the recording cable for a 1-h habituation period, but data were not collected during this time.
Rabbits were then briefly taken out of the experimental cages and given the 3'-5' or 5'-3' CP (the "test substance"). [When animals received intracerebroventricular (ICV) injections, appropriate amounts of test substances (0.1-10.0 ul) were diluted to 50 ul with artificial CSF [3 mM KCL, 1.15 mM CaCl2 and 0.96 mM MgCl2 in pyrogen-free saline (PFS), […] NaCl (Abbott)]; these solutions were slowly infused over 2 min. […]

For the next data set, the system named is growth hormone release. To be noted: relative potency of C-terminal deleted hGHRH fragments; cited from earlier work.
The conditions of data set [1]: amino acids added to carboxyl terminal of N-acetyl muramyl-L-alanyl-D-isoglutamine; cited from earlier work.
Another data set deals with rat pituitary gland. To be noted: cited from earlier work.
A further data set relates to lactating holstein cows. To be noted: cited from earlier work.

With “H-DPVNIRAFDDVL-NH2 [3'-5' CP, H-Asp-Pro-Val-Asn-Ile-Arg-Ala-Phe-Asp-Asp-Val-Leu-NH2]”, in the data set with rabbits (ICV), the “behavior (arousable; eat, drink and groom)” value is given as “behavior was normal”; the “capacity to enhance sleep” value was “have the capacity to enhance sleep”; the “character of the excess sleep (cycling through states of vigilance)” value is reported as “appeared normal”; the “temperatures of the animals” value is recorded as “remained normal”. In the data set with rabbits (ICV), the “time spent in SWS” value was “significantly more time” and the “time spent in rapid-eye-movement sleep” value is reported as “significantly more time”.

As for “hGHRH (1-19): C-terminal deleted GHRH fragment (YADAIFTNSYRKVLGQLSA; Somatoliberin; UniProt P01286 32-50, looked up, fragment)”, the “relative GH-releasing potency” value with growth hormone release was “No activity”.

For “H-VEPGSLFLVPLPLLPVHDFVQQFAGI-NH2 [5'-3' CP]”, in the data set with rabbits (ICV), the “capacity to enhance sleep” value was “have the capacity to enhance sleep”, the “time spent in SWS” value is reported as “significantly more time” and the “time spent in rapid-eye-movement sleep” value is “significantly more time”. For the same substance, in the data set with rabbits (in vivo), the “behavior (arousable; eat, drink and groom)” value is “behavior was normal”; the “character of the excess sleep (cycling through states of vigilance)” value is “appeared normal”; the “temperatures of the animals” value is on record as “remained normal”.

For “N-acetyl-muramyl-L-alanyl-D-isoglutamyl-L-diaminopimelyl alanine”, the somnogenic activity entry in data set [1] is on record as “somnogenic activity is retained”.

For the substance “human GHRH: Growth Hormone Releasing Hormone, hypothalamic peptide which positively regulates the synthesis and secretion of growth hormone (YADAIFTNSYRKVLGQLSARKLLQDIMSRQQGESNQERGARARL; ends and bridges not checked; UniProt P01286 32-75, looked up)”, the GH-stimulating effect entry in the data set on rat pituitary gland was “a GH-stimulating effect on the rat pituitary gland”. In the data set on lactating holstein cows, the “feed to milk conversion” value was “apparent increase” and the “secretion of growth hormone” value is “increases the secretion of growth hormone consistently”.

With “hGHRH (1-27): C-terminal deleted GHRH fragment (YADAIFTNSYRKVLGQLSARKLLQDIM; Somatoliberin; UniProt P01286 32-58, looked up, fragment)”, the “relative GH-releasing potency” value with growth hormone release was 12%.

For “hGHRH (1-24): C-terminal deleted GHRH fragment (YADAIFTNSYRKVLGQLSARKLLQ; Somatoliberin; UniProt P01286 32-55, looked up, fragment)”, in the data set on growth hormone release, the “relative GH-releasing potency” value was 0.02%.
